Results on one compound are retold here after US20080085315A1, “Amorphous ezetimibe and the production thereof” (priority 2006, published 2008).

What is called Cmax is the peak of the concentration-time curve. As usually defined, the Tmax is the time from dosing to the highest level.

The conditions of data set [1]: cited from earlier work.
The nature of data set [2]: Pharmacokinetics in fasted male Sprague Dawley rats, single dose. The data set is classed as in vivo. Particulars: rat, po, analyte EZE in plasma, single dose 100 mg/kg crystalline EZE or equivalent amount of amorphous EZE. As to the method: The pharmacokinetics of crystalline EZE and the amorphous 1 EZE: 3 PVP+2% SLS spray dried powder were studied in male Sprague Dawley rats in the fasted state. Six rats were single-dosed with either 100 mg/kg crystalline EZE or an equivalent amount of the amorphous EZE of Example 2.

In the case of `O=C1[C@H](CC[C@H](O)c2ccc(F)cc2)[C@@H](c2ccc(O)cc2)N1c1ccc(F)cc1` [crystalline, 1-(4-fluorophenyl)-3(R)-[3-(4-fluorophenyl)-3(S)-hydroxypropyl]-4(S)-(4-hydroxyphenyl)-2-azetidinone], the solubility in water entry in data set [1] is listed as “insoluble in water”. Moreover, in data set [2], the Cmax was 5.1 ng/mL and the Tmax was 8 h. Besides, the AUC(0-t) in data set [2] (read-out: AUC0-24 h) worked out at 64.2 ng·h/mL.
